Test results published in patent publication US20250108019A1, “USE OF LACTIC ACID IN PRODUCT FOR REGULATING AND PROMOTING TISSUE GROWTH” (CHANGCHUN SINOBIOMATERIALS CO., LTD., priority 2022, published 2025).

Key:
muscle—rectus femoris = test: Muscle tissue diameter after local injection in mice (Sirius red, 100× optical microscope); type: in vivo; settings: for Muscle tissue measured value, mean: 0.1 ml injection daily, experimental side
Excerpt: (§1) Experimental animals: Male experimental mice weighing 23±4 g were selected and divided into several groups, with 10 mice in each group. Experimental site: Different tissue sites of mice were selected for the test, specifically muscle—rectus femoris, tendon—Achilles tendon, cartilage—ear cartilage tissue. Experimental group: ? 25 mmol/L aqueous lactic acid solution • ? 50 mmol/L aqueous lactic acid solution • ? 75 mmol/L aqueous lactic acid solution and • ? 0.9% sodium chloride injection Experimental procedure: The right side of the experimental mouse was the experimental side (injected with lactic acid solutions at different concentrations), and the left side was the control side (injected with 0.9% sodium chloride injection). The experiment started with a single injection of 0.1 ml of the corresponding experimental solution at the experimental side every day from 1 to 7 days. […] The experimental and control sides of each mouse were selected for fixation and pathological histological examination. • 1) The tissue to be observed was cut and fixed, and then stained with Sirius red to observe the effects of the injection solution on the tissues at various sites. • 2) The experimental side and the control side were randomly selected for sectioning, the diameter of each tissue was measured under a 100× optical microscope, and the average value of the experimental side and the control side was calculated using the following formula: [formula] The diameters on both sides were compared, and the effects of the lactic acid solution on each tissue site were analyzed using the SSPS 21 calculation results.

tendon—Achilles tendon = test: Tendon diameter after local injection in mice (Sirius red, 100× optical microscope); type: in vivo; settings: for Tendon measured value, mean: 0.1 ml injection daily, experimental side
Excerpt: as §1

[1] = system: cartilage—ear cartilage tissue; test: Ear cartilage diameter after local injection in mice (Sirius red, 100× optical microscope); type: in vivo; settings: 50 mmol/L; for Ear cartilage tissue measured value, mean: 0.1 ml injection daily, experimental side
Excerpt: as §1

sciatic nerve [2] = test: Sciatic function index (SFI) after sciatic nerve clamp injury; type: in vivo, mice; settings: 0.1 ml of 50 mmol/L intraperitoneal
Method: Experimental animals: Male experimental mice weighing 30˜35 g were selected and divided into 3 groups, with 26 mice in each group. Experimental site: The sciatic nerve of mice was selected. Experimental groups: ? model group (injury caused by sciatic nerve clamp injury); ? treatment group (after injuried by sciatic nerve clamp, 0.1 ml of 50 mmol/L aqueous lactic acid solution was given by intraperitoneal injection each time); and ? sham group (only the sciatic nerve was freed). Experimental procedure: The treatment group was given medication for 14 consecutive days, and the model group and sham group were given an equal amount of 0.9% sodium chloride injection. • (1) The functional recovery of the sciatic nerve of mice after injury was tracked and evaluated by using the sciatic function index (SFI) at 7 and 14 days after surgery. […] The footprints of the left injured side (E) and the right normal side (N) of the experimental mice were measured. The footprint length (PL), the distance from the first toe to the fifth toe (TS), and the distance from the second toe to the fourth toe (IT) were recorded and put into the formula for calculation. […] The formula is as follows: SFI=109.5(ETS−NTS)/NTS−38.3(EPL−NPL)/NPL+13.3(EIT−NIT)/NIT−8.8 • (2) The degree of toe spread on the injured side was recorded at 3, 7, and 14 days after surgery. […]

sciatic nerve [3] = test: Toe spread score after sciatic nerve clamp injury; type: in vivo, mice; settings: 0.1 ml of 50 mmol/L intraperitoneal
Method: Experimental animals: Male experimental mice weighing 30˜35 g were selected and divided into 3 groups, with 26 mice in each group. Experimental site: The sciatic nerve of mice was selected. Experimental groups: ? model group (injury caused by sciatic nerve clamp injury); ? treatment group (after injuried by sciatic nerve clamp, 0.1 ml of 50 mmol/L aqueous lactic acid solution was given by intraperitoneal injection each time); and ? sham group (only the sciatic nerve was freed). Experimental procedure: The treatment group was given medication for 14 consecutive days, and the model group and sham group were given an equal amount of 0.9% sodium chloride injection. […] The evaluation grades are classified as scores 0˜3, with no spread being score 0 and full spread being score 3.

## CC(O)C(=O)O (centres unmarked) [lactic acid]
muscle—rectus femoris; 25 mmol/L, 3 days
  Muscle tissue measured value, mean: 64.13 μm
muscle—rectus femoris; 25 mmol/L, 7 days
  Muscle tissue measured value, mean: 79.66 μm
muscle—rectus femoris; 25 mmol/L, 14 days, * P<0.05 vs control side
  Muscle tissue measured value, mean: 123.8* μm
muscle—rectus femoris; 25 mmol/L, 21 days
  Muscle tissue measured value, mean: 112.1 μm
muscle—rectus femoris; 25 mmol/L, 14 days, FIG. 1
  Muscle tissue on the experimental side, histological observation: significantly thickened
muscle—rectus femoris; 50 mmol/L, 3 days
  Muscle tissue measured value, mean: 73.49 μm
muscle—rectus femoris; 50 mmol/L, 7 days, ** P<0.01 vs control side
  Muscle tissue measured value, mean: 69.14** μm
muscle—rectus femoris; 50 mmol/L, 14 days, * P<0.05 vs control side
  Muscle tissue measured value, mean: 119.5* μm
muscle—rectus femoris; 50 mmol/L, 21 days
  Muscle tissue measured value, mean: 111.9 μm
muscle—rectus femoris; 50 mmol/L, 7 days, FIG. 2
  Muscle tissue on the experimental side, histological observation: significantly thickened
tendon—Achilles tendon; 25 mmol/L, 3 days, * P<0.05 vs control
  Tendon measured value, mean: 853.9* μm
tendon—Achilles tendon; 25 mmol/L, 14 days
  Tendon measured value, mean: 877.1 μm
tendon—Achilles tendon; 25 mmol/L, 21 days
  Tendon measured value, mean: 438.3 μm
tendon—Achilles tendon; 25 mmol/L, 3 days after injection, FIG. 3
  Achilles tendon on the experimental side, histological observation: significantly thickened
tendon—Achilles tendon; 50 mmol/L, 3 days
  Tendon measured value, mean: 484.6 μm
tendon—Achilles tendon; 50 mmol/L, 7 days
  Tendon measured value, mean: 547.8 μm
tendon—Achilles tendon; 50 mmol/L, 14 days, * P<0.05 vs control
  Tendon measured value, mean: 769.5* μm
tendon—Achilles tendon; 50 mmol/L, 21 days
  Tendon measured value, mean: 543.9 μm
tendon—Achilles tendon; 50 mmol/L, Day 14, FIG. 4
  Achilles tendon on the experimental side, histological observation: significantly thickened
tendon—Achilles tendon; 75 mmol/L, 3 days, * P<0.05 vs control
  Tendon measured value, mean: 970.9* μm
tendon—Achilles tendon; 75 mmol/L, 7 days, * P<0.05 vs control
  Tendon measured value, mean: 832.2* μm
tendon—Achilles tendon; 75 mmol/L, 14 days
  Tendon measured value, mean: 578.2 μm
tendon—Achilles tendon; 75 mmol/L, 21 days, * P<0.05 vs control
  Tendon measured value, mean: 970.1* μm
tendon—Achilles tendon; 75 mmol/L, Day 3, 7, and 21, FIG. 5
  Achilles tendon on the experimental side, histological observation: significantly thickened
[1]; 3 days
  Ear cartilage tissue measured value, mean: 158.8 μm
[1]; 7 days
  Ear cartilage tissue measured value, mean: 237.3 μm
[1]; 14 days
  Ear cartilage tissue measured value, mean: 170.3 μm
[1]; 21 days, * P<0.05 vs control side
  Ear cartilage tissue measured value, mean: 253.5* μm
[1]; Day 21, FIG. 6
  Cross-section of the ear cartilage on the experimental side, histological observation: significantly thickened
Sciatic nerve [2]; 7 days after surgery, FIG. 7
  SFI score: significantly lower than those in the sham group
Sciatic nerve [2]; 14 days after surgery, P<0.01, FIG. 7
  SFI score: significantly increased
Sciatic nerve [3]; 3 days after surgery
  Toe spread score (0~3): 0 ± 0.4
Sciatic nerve [3]; 7 days after surgery
  Toe spread score (0~3): 0.9 ± 0.6
Sciatic nerve [3]; 10 days after surgery
  Toe spread score (0~3): 2 ± 0.3
Sciatic nerve [3]; 14 days after surgery
  Toe spread score (0~3): 2.5 ± 0.5
